# Reference: patent US20250332300A1 (priority 2024, published 2025)
# Counter-ions that a name gives are not always drawn. Like-named read-outs stand apart in the source and are kept apart here. Positions of bridges follow the written chain, without caps; N, C: chain ends. Non-standard residues stand in square brackets, D forms with d. Residues, ends and D or L forms follow the SMILES beside them. *: point of attachment. DOTA = O=C(O)CN1CCN(CC(=O)O)CCN(CC(=O)*)CCN(CC(=O)O)CC1; PEG10 = NCCOCCOCCOCCOCCOCCOCCOCCOCCOCCOCCC(=O)O; Trp(5-OH) = N[C@@H](Cc1c[nH]c2ccc(O)cc12)C(=O)O; NMePhe(4-F) = CN[C@@H](Cc1ccc(F)cc1)C(=O)O; NMehPhe = CN[C@@H](CCc1ccccc1)C(=O)O; Aad = N[C@@H](CCCC(=O)O)C(=O)O; Gly(cPr) = N[C@H](C(=O)O)C1CC1; aThr = C[C@H](O)[C@H](N)C(=O)O; NMeK = CN[C@@H](CCCCN)C(=O)O; NMeDap = CN[C@@H](CN)C(=O)O
# Tests used:
# Type in all cases: binding
# human HER2 (23-652) [1] = molecular target: T1, human HER2 (23-652) (Homo sapiens, UniProt P04626); test: Surface plasmon resonance (SPR) for assessment of peptide affinity, human HER2; set-up: towards human HER2 (23-652) and mouse HER2 (23-653); made in house
# Procedure: Each protein was immobilized either onto a SA sensorchip (Cytiva, BR-1005-31) or CM5 sensorchip (Cytiva, BR-1005-30) to a density of 800-2000 RU. […] For the assay setup the same conditions (flow rate, running buffer, peptide dilution) as described above were used. In a first step the Anti Fc IgG Ab (from Human Antibody Capture Kit, Ref. 29234600, Cytiva) was diluted into acetate pH 5.0 at 25 ug/mL and immobilized at a flow rate of 10 uL/min over 360 s to reach a density around 6000 RU. […] The peptides were tested with an association time of 280 s followed by a dissociation time of 3000 s at a flow rate of 30 uL/min. The regeneration was done using 3 M magnesium chloride regeneration solution as obtained with a contact time of 30 s at a flow rate of 10 uL/min. Curve fitting was performed using the BiacoreTM 8K evaluation software.
# human HER2 (23-652) [2] = molecular target: T1, human HER2 (23-652); test: TR-FRET competition assay for peptide potency, human HER2; set-up: towards human HER2 (23-652) and mouse HER2 (23-653); made in house; host or cells: mammalian cells
# Procedure: (§1) Both proteins containing a His-, Avi-tag and biotin in Nterminus, were expressed in mammalian cells and produced in house. […] Standard assay conditions consist of 20 uL total volume in white 384-well plates (Greiner), in 10 mM HEPES buffer containing 150 mM NaCl, 3 mM EDTA, 0.05% Tween20 and 1% final DMSO. […] The ratiometric FRET assay readout is calculated from the ratio of the raw data of the two distinct fluorescence signals measured in time resolved mode (fluorescence 665 nm/fluorescence 620 nm). IC50 values were calculated with the standard Novartis in-house assay data analysis software (Helios software application, Novartis Institutes for BioMedical Research, unpublished) using the methods described in Comput. Methods. Programs. Biomed. 2006, 82, 31-37 (regression algorithms for nonlinear dose-response curve fitting).
# mouse HER2 (23-653) = mouse HER2 (23-653) (Mus musculus, UniProt P70424); test: TR-FRET competition assay for peptide potency, mouse HER2; set-up: mouse HER2 (23-653) using a Cy5 labeled peptide as a probe; made in house; host or cells: mammalian cells
# Procedure: as §1
# [3] = SPR, human HER2 extracellular domain, 25° C., 1:1 binding model; read-out: huHER2-SPR-ONC KD
# [4] = TR-FRET competition with Cy5 labeled peptide probe, 0.1 nM human HER2, 24 h incubation; read-out: huHER2 TR-FRET IC50
# [5] = TR-FRET competition with Cy5 labeled peptide probe, 0.1 nM mouse HER2, 24 h incubation; read-out: moHER2 TR-FRET IC50
Compound,Kd (human HER2 (23-652) [1]; [3]),IC50 (human HER2 (23-652) [2]; [4]),IC50 (mouse HER2 (23-653); [5]),other results
CCCCCCCCCCCC(CCCCCCCCCCC(=O)O)(C(=O)O)C(=O)NCCOCCOCCOCCOCCOCCOCCOCCOCCOCCOCCOCCOCCOCCOCCOCCOCCOCCOCCOCCOCCOCCOCCOCCOCCC(=O)N[C@H]1CCCC(=O)NC[C@@H](C(=O)N(C)[C@@H](Cc2ccc(F)cc2)C(=O)N[C@@H](CCCCNC(=O)CN2CCN(CC(=O)O)CCN(CC(=O)O)CCN(CC(=O)O)CC2)C(N)=O)N(C)C(=O)[C@H](C2CC2)NC(=O)[C@H](Cc2c[nH]c3ccccc23)NC(=O)[C@H](Cc2c[nH]c3ccc(O)cc23)NC(=O)[C@H](CCCCNC(C)=O)N(C)C(=O)[C@H](CCc2ccccc2)N(C)C(=O)[C@H](CO)NC(=O)[C@H](Cc2ccc(O)cc2)NC1=O (some centres unmarked) [Example G1],0.7 nM,1 nM,3.8 nM,
CC(=O)NCCCC[C@H]1C(=O)N[C@@H](Cc2c[nH]c3ccc(O)cc23)C(=O)N[C@@H](Cc2c[nH]c3ccccc23)C(=O)N[C@@H](C2CC2)C(=O)N(C)[C@H](C(=O)N(C)[C@@H](Cc2ccc(F)cc2)C(N)=O)CNC(=O)CCC[C@H](NC(=O)CCOCCOCCOCCOCCOCCOCCOCCOCCOCCOCCNC(=O)CN2CCN(CC(=O)O)CCN(CC(=O)O)CCN(CC(=O)O)CC2)C(=O)N[C@@H](Cc2ccc(O)cc2)C(=O)N[C@@H](CO)C(=O)N(C)[C@@H](CCc2ccccc2)C(=O)N1C [Example C5] ({DOTA-PEG10}-[Aad]YS[NMehPhe][NMeK](Ac)[Trp(5-OH)]W[Gly(cPr)][NMeDap][NMePhe(4-F)]-NH2; lactam 1-9),0.7 nM,0.5 nM,0.7 nM,
"CC(=O)NCCCC[C@H]1C(=O)N[C@@H](Cc2c[nH]c3ccc(O)cc23)C(=O)N[C@@H](Cc2c[nH]c3ccccc23)C(=O)N[C@@H]([C@H](C)O)C(=O)N(C)[C@H](C(=O)N(C)[C@@H](Cc2ccc(F)cc2)C(N)=O)CNC(=O)CCC[C@H](NC(C)=O)C(=O)N[C@@H](Cc2ccc(O)cc2)C(=O)N[C@@H](CO)C(=O)N(C)[C@@H](CCc2ccccc2)C(=O)N1C [Example A6, (3S,6S,9S,12S,15S,18S,21S,24S,27S)-9-((1H-indol-3-yl)methyl)-27-acetamido-15-(4-acetamidobutyl)-N-((S)-1-amino-3-(4-fluorophenyl)-1-oxopropan-2-yl)-12-((5-hydroxy-1H-indol-3-yl)methyl)-24-(4-hydroxybenzyl)-6-((S)-1-hydroxyethyl)-21-(hydroxymethyl)-N,4,16,19-tetramethyl-5,8,11,14,17,20,23,26,31-nonaoxo-18-phenethyl-1,4,7,10,13,16,19,22,25-nonaazacyclohentriacontane-3-carboxamide] (Ac-[Aad]YS[NMehPhe][NMeK](Ac)[Trp(5-OH)]W[aThr][NMeDap][NMePhe(4-F)]-NH2; lactam 1-9)",,,,IC50 (human HER2 (23-652) [2]; read-out: huHER2 TR-FRET IC50): 1.3 nM
CC(=O)NCCCC[C@H]1C(=O)N[C@@H](Cc2c[nH]c3ccc(O)cc23)C(=O)N[C@@H](Cc2c[nH]c3ccccc23)C(=O)N[C@@H](C2CC2)C(=O)N(C)[C@H](C(=O)N(C)[C@@H](Cc2ccc(F)cc2)C(=O)N[C@@H](CCCCNC(=O)CN2CCN(CC(=O)O)CCN(CC(=O)O)CCN(CC(=O)O)CC2)C(=O)O)CNC(=O)CCC[C@H](NC(C)=O)C(=O)N[C@@H](Cc2ccc(O)cc2)C(=O)N[C@@H](CO)C(=O)N(C)[C@@H](CCc2ccccc2)C(=O)N1C [Example C12],0.4 nM,0.3 nM,1 nM,
CC(=O)NCCCC[C@H]1C(=O)N[C@@H](Cc2c[nH]c3ccc(O)cc23)C(=O)N[C@@H](Cc2c[nH]c3ccccc23)C(=O)N[C@@H](C2CC2)C(=O)N(C)[C@H](C(=O)N(C)[C@@H](Cc2ccc(F)cc2)C(=O)N[C@@H](CCCCNC(=O)CN2CCN(CC(=O)O)CCN(CC(=O)O)CCN(CC(=O)O)CC2)C(N)=O)CNC(=O)CCC[C@H](NC(=O)Cc2nnn[nH]2)C(=O)N[C@@H](Cc2ccc(O)cc2)C(=O)N[C@@H](CO)C(=O)N(C)[C@@H](CCc2ccccc2)C(=O)N1C [Example C13],,,,"Kd (human HER2 (23-652) [1]; read-out: huHER2-SPR-ONC KD; SPR, human HER2 extracellular domain, 25° C., 1:1 binding model): < 0.1 nM; IC50 (human HER2 (23-652) [2]; read-out: huHER2 TR-FRET IC50; TR-FRET competition with Cy5 labeled peptide probe, 0.1 nM human HER2, 24 h incubation): < 0.1 nM; IC50 (mouse HER2 (23-653); read-out: moHER2 TR-FRET IC50; TR-FRET competition with Cy5 labeled peptide probe, 0.1 nM mouse HER2, 24 h incubation): 0.1 nM"
COCCOCCOCCOCCOCCOCCOCCOCCOCCOCCOCCOCCC(=O)N[C@H]1CCCC(=O)NC[C@@H](C(=O)N(C)[C@@H](Cc2ccc(F)cc2)C(=O)N[C@@H](CCCCNC(=O)c2ccc(F)nc2)C(N)=O)N(C)C(=O)[C@H](C2CC2)NC(=O)[C@H](Cc2c[nH]c3ccccc23)NC(=O)[C@H](Cc2c[nH]c3ccc(O)cc23)NC(=O)[C@H](CCCCNC(C)=O)N(C)C(=O)[C@H](CCc2ccccc2)N(C)C(=O)[C@H](CO)NC(=O)[C@H](Cc2ccc(O)cc2)NC1=O [Example F3],< 0.1 nM,,0.3 nM,IC50 (human HER2 (23-652) [2]; read-out: huHER2 TR-FRET IC50): < 0.1 nM
CC(=O)N[C@H]1CCCC(=O)NC[C@@H](C(=O)N(C)[C@@H](Cc2ccc(F)cc2)C(=O)N[C@@H](CCCCNC(=O)CN2CCN(CC(=O)O)CCN(CC(=O)O)CCN(CC(=O)O)CC2)C(N)=O)N(C)C(=O)[C@H](C2CC2)NC(=O)[C@H](Cc2c[nH]c3ccccc23)NC(=O)[C@H](Cc2c[nH]c3ccc(O)cc23)NC(=O)[C@H](CCCCNC(=O)CO)N(C)C(=O)[C@H](CCc2ccccc2)N(C)C(=O)[C@H](CO)NC(=O)[C@H](Cc2ccc(O)cc2)NC1=O [Example C20],,0.1 nM,0.3 nM,
CC(=O)NCCCC[C@H]1C(=O)N[C@@H](Cc2c[nH]c3ccc(O)cc23)C(=O)N[C@@H](C)C(=O)N[C@@H](C2CC2)C(=O)N(C)[C@H](C(=O)N(C)[C@@H](Cc2ccc(F)cc2)C(=O)N[C@@H](CCCCNC(=O)CN2CCN(CC(=O)O)CCN(CC(=O)O)CCN(CC(=O)O)CC2)C(N)=O)CNC(=O)CCC[C@H](NC(C)=O)C(=O)N[C@@H](Cc2ccc(O)cc2)C(=O)N[C@@H](CO)C(=O)N(C)[C@@H](CCc2ccccc2)C(=O)N1C [Example C32] (Ac-[Aad]YS[NMehPhe][NMeK](Ac)[Trp(5-OH)]A[Gly(cPr)][NMeDap][NMePhe(4-F)]K(DOTA)-NH2; lactam 1-9),,9810 nM,> 10000 nM,
CC(=O)NCCCC[C@H]1C(=O)N[C@@H](Cc2c[nH]c3ccc(O)cc23)C(=O)N[C@@H](Cc2c[nH]c3ccccc23)C(=O)N[C@@H](C2CC2)C(=O)N(C)[C@H](C(=O)N(C)[C@@H](Cc2ccc(F)cc2)C(=O)N[C@@H](CCCCNC(=O)CN2CCN(CC(=O)O)CCN(CC(=O)O)CCN(CC(=O)O)CC2)C(N)=O)CNC(=O)CCC[C@H](NC(C)=O)C(=O)N[C@H](Cc2ccc(O)cc2)C(=O)N[C@H](CO)C(=O)N(C)[C@@H](CCc2ccccc2)C(=O)N1C [Example C3],,> 9500 nM,> 10000 nM,
CC(=O)NCCCC[C@H]1C(=O)N[C@@H](Cc2c[nH]c3ccc(O)cc23)C(=O)N[C@@H](Cc2c[nH]c3ccccc23)C(=O)N[C@@H](C2CC2)C(=O)N(C)[C@H](C(=O)N(C)[C@@H](Cc2ccc(F)cc2)C(N)=O)CNC(=O)CCC[C@H](NC(=O)CN2CCN(CC(=O)O)CCN(CC(=O)O)CCN(CC(=O)O)CC2)C(=O)N[C@@H](Cc2ccc(O)cc2)C(=O)N[C@@H](CO)C(=O)N(C)[C@@H](CCc2ccccc2)C(=O)N1C [Example C8] ({DOTA}-[Aad]YS[NMehPhe][NMeK](Ac)[Trp(5-OH)]W[Gly(cPr)][NMeDap][NMePhe(4-F)]-NH2; lactam 1-9),,2.1 nM,3.3 nM,
"CC(=O)NCCCC[C@H]1C(=O)N[C@@H](Cc2c[nH]c3ccc(O)cc23)C(=O)N[C@@H](Cc2c[nH]c3ccccc23)C(=O)N[C@@H](C2CC2)C(=O)N(C)[C@H](C(=O)N(C)[C@@H](Cc2ccc(F)cc2)C(=O)N[C@@H](CCCCN)C(N)=O)CNC(=O)CCC[C@H](NC(C)=O)C(=O)N[C@H](Cc2ccc(O)cc2)C(=O)N[C@H](CO)C(=O)N(C)[C@@H](CCc2ccccc2)C(=O)N1C [Example A48, TFA salt]",,,> 10000 nM,IC50 (human HER2 (23-652) [2]; read-out: huHER2 TR-FRET IC50): 8300 nM
